For one test, the target named is BTK (Homo sapiens, UniProt Q06187). The experiment in a line: BTK cell degradation in TMD-8 cells, HTRF assay. It counts as cell-based. Further details: endogenous in cells; host or cells: TMD-8 cells. Particulars: 6 h treatment, IC50 (DC50) of BTK degradation. The method in brief:
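BTK levels read by HTRF in lysates of TMD-8 cells exposed to compounds for 6 h, eight concentrations at 6-fold steps in 0.2% DMSO. Percent degradation versus DMSO and low controls was fitted with a four-parameter equation to give DC50; Dmax is maximal degradation.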
Background: In TR-FRET formats the signal depends on donor and acceptor labels being close together.

The next test has as its system HEK-293 cells. In words: HEK-293 cytotoxicity detection (CellTiter-Glo). It counts as cell-based. Particulars: Homo sapiens, 72 h, 72 h incubation, CellTiter-Glo luminescence, read-out: HEK293. The method in brief:
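HEK-293 cells exposed 72 h to 8 compounds doses (4-fold dilutions, top stock 5 mM at 500×) in 0.2% DMSO. Viability by CellTiter-Glo luminescence; inhibition normalised to DMSO high control and low control, IC50 from four-parameter curve fit.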
On the technique in general: Cellular ATP, detected with luciferase, serves as a proxy for viable cell number.

Sequence of BTK (Q06187 whole entry): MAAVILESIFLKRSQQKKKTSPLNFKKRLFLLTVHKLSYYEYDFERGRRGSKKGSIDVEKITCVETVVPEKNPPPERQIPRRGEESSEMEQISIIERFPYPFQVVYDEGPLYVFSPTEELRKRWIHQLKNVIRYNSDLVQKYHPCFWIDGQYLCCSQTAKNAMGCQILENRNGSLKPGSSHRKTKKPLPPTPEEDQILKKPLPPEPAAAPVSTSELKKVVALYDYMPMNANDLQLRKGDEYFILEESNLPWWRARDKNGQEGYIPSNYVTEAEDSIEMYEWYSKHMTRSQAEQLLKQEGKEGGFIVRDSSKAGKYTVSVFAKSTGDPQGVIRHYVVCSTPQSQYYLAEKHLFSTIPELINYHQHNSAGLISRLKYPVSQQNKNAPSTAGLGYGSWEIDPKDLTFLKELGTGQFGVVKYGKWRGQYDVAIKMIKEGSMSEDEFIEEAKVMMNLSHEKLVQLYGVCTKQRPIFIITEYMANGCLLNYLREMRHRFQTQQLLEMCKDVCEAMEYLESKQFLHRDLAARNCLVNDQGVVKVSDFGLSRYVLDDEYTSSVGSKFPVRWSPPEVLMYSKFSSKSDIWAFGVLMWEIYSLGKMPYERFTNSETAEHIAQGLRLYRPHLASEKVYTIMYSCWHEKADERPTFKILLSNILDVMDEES

Broadly, the DC50 is the concentration at which degradation of the target reaches its halfway point. A higher DC50 goes with a less potent degrader. Compound `NC(=O)c1c(-c2ccc(C(=O)Nc3cc(C(F)(F)F)ccn3)cc2Cl)nn2c1Nc1ccc(N3CCN(CC4CCN(c5ccc(N6CCC(=O)NC6=O)cc5)CC4)CC3)cc1CC2` [Example B24, 2-(2-chloro-4-((4-(trifluoromethyl)pyridin-2-yl)carbamoyl)phenyl)-7-(4-((1-(4-(2,4-dioxotetrahydropyrimidin-1(2H)-yl)phenyl)piperidin-4-yl)methyl)piperazin-1-yl)-9,10-dihydro-4-benzo[d]pyrazolo[1,5-a][1,3]diazepine-3-carboxamide] showed a half-maximal degradation concentration (DC50) on BTK of 1.51 nM. Besides, the IC50 in the test with HEK-293 cells was more than 10000 nM.
For `Cc1cccc(NC(=O)c2ccc(-c3nn4c(c3C(N)=O)Nc3ccc(N5CCN(CC6CCN(c7ccc(N8CCC(=O)NC8=O)cc7)CC6)CC5)cc3CC4)cc2Cl)n1` [Example B25, 2-(3-chloro-4-((6-methylpyridin-2-yl)carbamoyl)phenyl)-7-(4-((1-(4-(2,4-dioxotetrahydropyrimidin-1(2H)-yl)phenyl)piperidin-4-yl)methyl)piperazin-1-yl)-9,10-dihydro-4H-benzo[d]pyrazolo[1,5-a][1,3]diazepine-3-carboxamide] the same measures were 0.415 nM and more than 10000 nM.
On to `NC(=O)c1c(-c2ccc(C(=O)Nc3cc(C(F)(F)F)ccn3)c(Cl)c2)nn2c1Nc1ccc(N3CCN(CC4CCN(c5ccc(N6CCC(=O)NC6=O)cc5)CC4)CC3)cc1CC2` [Example B26, 2-(3-chloro-4-((4-(trifluoromethyl)pyridin-2-yl)carbamoyl)phenyl)-7-(4-((1-(4-(2,4-dioxotetrahydropyrimidin-1(2H)-yl)phenyl)piperidin-4-yl)methyl)piperazin-1-yl)-9,10-dihydro-4H-benzo[d]pyrazolo[1,5-a][1,3]diazepine-3-carboxamide], for which the DC50 on BTK was found to be 0.928 nM. Further, the IC50 in the test on HEK-293 cells was more than 10000 nM.
For `COc1cc(C(=O)Nc2cc(C(F)(F)F)ccn2)ccc1-c1nn2c(c1C(N)=O)Nc1ccc(N3CCN(CC4CCN(c5ccc(N6CCC(=O)NC6=O)cc5)CC4)CC3)cc1CC2` [Example B27, 7-(4-((1-(4-(2,4-dioxotetrahydropyrimidin-1(2H)-yl)phenyl)piperidin-4-yl)methyl)piperazin-1-yl)-2-(2-methoxy-4-((4-(trifluoromethyl)pyridin-2-yl)carbamoyl)phenyl)-9,10-dihydro-4H-benzo[d]pyrazolo[1,5-a][1,3]diazepine-3-carboxamide], on BTK, the 50% degradation concentration (DC50) worked out at 0.849 nM. In addition, in the test on HEK-293 cells, the IC50 was more than 10000 nM.
For `Cc1cccc(NC(=O)c2ccc(-c3nn4c(c3C(N)=O)Nc3ccc(N5CCN(CC6CCN(c7ccc(N8CCC(=O)NC8=O)cc7)CC6)CC5)cc3CC4)c(F)c2C)n1` [Example B28, 7-(4-((1-(4-(2,4-dioxotetrahydropyrimidin-1(2H)-yl)phenyl)piperidin-4-yl)methyl)piperazin-1-yl)-2-(2-fluoro-3-methyl-4-((6-methylpyridin-2-yl)carbamoyl)phenyl)-9,10-dihydro-4H-benzo[d]pyrazolo[1,5-a][1,3]diazepine-3-carboxamide] the same measures were 0.726 nM and more than 10000 nM.
For `Cc1cc(C(F)(F)F)cc(NC(=O)c2ccc(-c3nn4c(c3C(N)=O)Nc3ccc(N5CCN(CC6CCN(c7ccc(N8CCC(=O)NC8=O)cc7)CC6)CC5)cc3CC4)c(F)c2C)n1` [Example B29, 7-(4-((1-(4-(2,4-dioxotetrahydropyrimidin-1(2H)-yl)phenyl)piperidin-4-yl)methyl)piperazin-1-yl)-2-(2-fluoro-3-methyl-4-((6-methyl-4-(trifluoromethyl)pyridin-2-yl)carbamoyl)phenyl)-9,10-dihydro-4H-benzo[d]pyrazolo[1,5-a][1,3]diazepine-3-carboxamide] the same measures were 2.44 nM and more than 10000 nM.
With `Cc1cccc(NC(=O)c2cc(F)c(-c3nn4c(c3C(N)=O)Nc3ccc(N5CCN(CC6CCN(c7ccc(N8CCC(=O)NC8=O)cc7)CC6)CC5)cc3CC4)cc2C)n1` [Example B30, 7-(4-((1-(4-(2,4-dioxotetrahydropyrimidin-1(2H)-yl)phenyl)piperidin-4-yl)methyl)piperazin-1-yl)-2-(2-fluoro-5-methyl-4-((6-methylpyridin-2-yl)carbamoyl)phenyl)-9,10-dihydro-4H-benzo[d]pyrazolo[1,5-a][1,3]diazepine-3-carboxamide], the 50% degradation concentration (DC50) on BTK worked out at 2.53 nM. In addition, the IC50 with HEK-293 cells was more than 10000 nM.
Take `Cc1cccc(NC(=O)c2ncc(-c3nn4c(c3C#N)Nc3ccc(N5CCN(CC6CCN(c7ccc(N8CCC(=O)NC8=O)cc7)CC6)CC5)cc3CC4)cc2C)n1` [Example B31, 5-(3-cyano-7-(4-((1-(4-(2,4-dioxotetrahydropyrimidin-1(2H)-yl)phenyl)piperidin-4-yl)methyl)piperazin-1-yl)-9,10-dihydro-4H-benzo[d]pyrazolo[1,5-a][1,3]diazepin-2-yl)-3-methyl-N-(6-methylpyridin-2-yl)picolinamide]: at BTK, the DC50 is more than 2000 nM. For the same compound, the IC50 with HEK-293 cells stood at 133 nM.
On BTK, `Cc1cccc(NC(=O)c2ncc(-c3nn4c(c3C(N)=O)Nc3ccc(N5CCN(CC6CCN(c7ccc(N8CCC(=O)NC8=O)cc7)CC6)CC5)cc3CC4)cc2C)n1` [Example B32, 7-(4-((1-(4-(2,4-dioxotetrahydropyrimidin-1(2H)-yl)phenyl)piperidin-4-yl)methyl)piperazin-1-yl)-2-(5-methyl-6-((6-methylpyridin-2-yl)carbamoyl)pyridin-3-yl)-9,10-dihydro-4H-benzo[d]pyrazolo[1,5-a][1,3]diazepine-3-carboxamide] displayed a DC50 of 8.86 nM. In the test with HEK-293 cells, the IC50 was 332 nM.
For `Cc1cccc(NC(=O)c2ncc(-c3nn4c(c3C(N)=O)Nc3ccc(N5CCN(CCc6cc(F)c(C7CCC(=O)NC7=O)c(F)c6)CC5)cc3CC4)cc2C)n1` (centres unmarked) [Example B33, 7-(4-(4-(2,6-dioxopiperidin-3-yl)-3,5-difluorophenethyl)piperazin-1-yl)-2-(5-methyl-6-((6-methylpyridin-2-yl)carbamoyl)pyridin-3-yl)-9,10-dihydro-4H-benzo[d]pyrazolo[1,5-a][1,3]diazepine-3-carboxamide] the same measures were 17.6 nM and 400 nM.
In turn, `Cc1cccc(NC(=O)c2ncc(-c3nn4c(c3C(N)=O)Nc3ccc(N5CCN(C6CC(c7ccc([C@H]8CCC(=O)NC8=O)cc7)C6)CC5)cc3CC4)cc2C)n1` (stereo partly drawn) [Example B34, (R)-7-(4-(3-(4-(2,6-dioxopiperidin-3-yl)phenyl)cyclobutyl)piperazin-1-yl)-2-(5-methyl-6-((6-methylpyridin-2-yl)carbamoyl)pyridin-3-yl)-9,10-dihydro-4H-benzo[d]pyrazolo[1,5-a][1,3]diazepine-3-carboxamide] displayed a 50% degradation concentration (DC50) at BTK of 57.8 nM. The IC50 in the test with HEK-293 cells came out at 168 nM.
For `Cc1cccc(NC(=O)c2cnc(-c3nn4c(c3C(N)=O)Nc3ccc(N5CCN(CC6CCN(c7ccc(N8CCC(=O)NC8=O)cc7)CC6)CC5)cc3CC4)cc2C)n1` [Example B36, 7-(4-((1-(4-(2,4-dioxotetrahydropyrimidin-1(2H)-yl)phenyl)piperidin-4-yl)methyl)piperazin-1-yl)-2-(4-methyl-5-((6-methylpyridin-2-yl)carbamoyl)pyridin-2-yl)-9,10-dihydro-4H-benzo[d]pyrazolo[1,5-a][1,3]diazepine-3-carboxamide] the same measures were 47.2 nM and more than 10000 nM.
As to `Cc1cccc(NC(=O)c2cnc(-c3nn4c(c3C(N)=O)Nc3ccc(N5CCN(CCc6cc(F)c(C7CCC(=O)NC7=O)c(F)c6)CC5)cc3CC4)cc2C)n1` (centres unmarked) [Example B37, 7-(4-(4-(2,6-dioxopiperidin-3-yl)-3,5-difluorophenethyl)piperazin-1-yl)-2-(4-methyl-5-((6-methylpyridin-2-yl)carbamoyl)pyridin-2-yl)-9,10-dihydro-4H-benzo[d]pyrazolo[1,5-a][1,3]diazepine-3-carboxamide], it took 15.2 nM to reach half-maximal degradation on BTK (DC50). The IC50 in the test on HEK-293 cells was more than 10000 nM.
In turn, `Cc1cccc(NC(=O)c2ccc(-c3nn4c(c3C(N)=O)Nc3ccc(N5CCN(CC6CCN(c7ccc(N8CCC(=O)NC8=O)cc7)CC6)CC5)cc3CC4)nc2C)n1` [Example B38, 7-(4-((1-(4-(2,4-dioxotetrahydropyrimidin-1(2H)-yl)phenyl)piperidin-4-yl)methyl)piperazin-1-yl)-2-(6-methyl-5-((6-methylpyridin-2-yl)carbamoyl)pyridin-2-yl)-9,10-dihydro-4H-benzo[d]pyrazolo[1,5-a][1,3]diazepine-3-carboxamide] returned a DC50 at BTK of 4.89 nM. Moreover, the IC50 with HEK-293 cells was more than 10000 nM.
For `Cc1cccc(NC(=O)c2ccc(-c3nn4c(c3C(N)=O)Nc3ccc(N5CCN(CCc6cc(F)c(C7CCC(=O)NC7=O)c(F)c6)CC5)cc3CC4)nc2C)n1` (centres unmarked) [Example B39, 7-(4-(4-(2,6-dioxopiperidin-3-yl)-3,5-difluorophenethyl)piperazin-1-yl)-2-(6-methyl-5-((6-methylpyridin-2-yl)carbamoyl)pyridin-2-yl)-9,10-dihydro-4H-benzo[d]pyrazolo[1,5-a][1,3]diazepine-3-carboxamide] the same measures were 5.66 nM and more than 10000 nM.
`Cc1cncc(NC(=O)c2ccc(-c3nn4c(c3C(N)=O)Nc3ccc(N5CCN(CC6CCN(c7ccc(N8CCC(=O)NC8=O)cc7)CC6)CC5)cc3CC4)c(F)c2C)n1` [Example B40, 7-(4-((1-(4-(2,4-dioxotetrahydropyrimidin-1(2H)-yl)phenyl)piperidin-4-yl)methyl)piperazin-1-yl)-2-(2-fluoro-3-methyl-4-((6-methylpyrazin-2-yl)carbamoyl)phenyl)-9,10-dihydro-4H-benzo[d]pyrazolo[1,5-a][1,3]diazepine-3-carboxamide] displayed a 50% degradation concentration (DC50) at BTK of 5.69 nM. Further, the IC50 in the test on HEK-293 cells was more than 10000 nM.

These data come from US20240246977A1, “DEGRADATION OF BRUTON'S TYROSINE KINASE (BTK) BY CONJUGATION OF BTK INHIBITORS WITH E3 LIGASE LIGAND AND METHOD OF USE” (BeiGene Switzerland GmbH, priority 2021, published 2024).
